According to patent publication US20170152263A1, “Substituted Indazole Compounds as IRAK4 Inhibitors” (AURIGENE DISCOVERY TECHNOLOGIES LIMITED, priority 2014, published 2017):
Where a name gives a salt, the structure may show the parent alone.

Target: T1, recombinant IRAK-4 kinase (Homo sapiens, UniProt Q9NWZ3)
T1 construct: purchased Millipore, USA
T1 sequence (Q9NWZ3 1-460): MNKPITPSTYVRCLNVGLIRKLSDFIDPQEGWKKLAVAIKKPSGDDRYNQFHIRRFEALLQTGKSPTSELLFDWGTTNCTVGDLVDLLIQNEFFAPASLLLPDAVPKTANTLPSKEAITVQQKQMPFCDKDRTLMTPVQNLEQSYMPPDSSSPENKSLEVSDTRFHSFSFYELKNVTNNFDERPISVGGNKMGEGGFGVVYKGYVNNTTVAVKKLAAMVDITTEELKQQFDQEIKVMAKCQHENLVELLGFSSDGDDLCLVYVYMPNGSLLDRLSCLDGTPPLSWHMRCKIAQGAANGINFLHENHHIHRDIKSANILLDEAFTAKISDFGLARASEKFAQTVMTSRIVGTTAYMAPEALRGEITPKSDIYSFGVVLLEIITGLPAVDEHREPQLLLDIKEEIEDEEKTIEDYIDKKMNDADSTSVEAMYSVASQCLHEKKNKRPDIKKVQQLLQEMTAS
Assay: IRAK-4 biochemical assay (TR-FRET)
Conditions: IRAK-4 enzyme, 20 μM ATP; for inhibition at 0.1 µM: compound at 0.1 μM; for inhibition at 1 µM: compound at 1 μM; for IC50: dose response
Experimental: Compounds were tested for their potential to inhibit IRAK-4 enzyme in a TR-FRET assay using recombinant IRAK-4 kinase from Millipore, USA. The assay buffer was 50 mM Tris-HCl pH 7.5, 20 mM MgCl2, 1 mM EGTA, 2 mM DTT, 3 mM MnCl2 and 0.01% Tween 20.5 ng of IRAK-4 kinase was used for the assay. After pre-incubation of enzyme with test compound for 30 minutes at room temperature, a substrate mixture containing 100 nM Biotin Histone H3 (Millipore, USA) and 20 μM ATP (Sigma, USA) was added and the reaction was incubated for 30 min. Post incubation, the reaction was stopped by the addition of stop mix containing 40 mM EDTA, 1 nM of Europium-Anti-Phospho-Histone H3 (Ser10) antibody (Perkin Elmer, USA) and 20 nM SureLight Allophycocyanin-Streptavidin (Perkin Elmer, USA). The fluorescence emission at 615 nm and 665 nm were measured at an excitation of 340 nm and the percent inhibition was estimated from the ratio of the fluorescence intensities [(F665/F615)×10000]. […] The IC50 values were estimated by fitting the dose-response data to sigmoidal dose response (variable slope), curve fitting program using Graphpad Prism software Version 6.01.

SMILES | inhibition at 0.1 µM | inhibition at 1 µM | IC50
Cn1ncc2cc(N3CC[C@H](O)C3)c(NC(=O)c3coc(-c4ccnc5[nH]ccc45)n3)cc21 [Example 26, (S)—N—(5-(3-hydroxypyrrolidin-1-yl)-1-methyl-1H-indazol-6-yl)-2-(1H-pyrrolo[2,3-b]pyridin-4-yl)oxazole-4-carboxamide] | 96% | 92% | < 100 nM
Cc1cc(-c2nc(C(=O)Nc3cc4[nH]ncc4cc3N3CC[C@H](O)C3)co2)ccn1 [Example 27, (S)—N—(5-(3-hydroxypyrrolidin-1-yl)-1H-indazol-6-yl)-2-(2-methylpyridin-4-yl)oxazole-4-carboxamide] | 88% | 97% | > 250 nM
Cn1ncc2cc(N3CC[C@H](O)C3)c(NC(=O)c3coc(-c4ccnc(N)c4F)n3)cc21 [Example 28, (S)-2-(2-amino-3-fluoropyridin-4-yl)—N—(5-(3-hydroxypyrrolidin-1-yl)-1-methyl-1H-indazol-6-yl)oxazole-4-carboxamide] | 96% | 98% | < 100 nM
Cn1ncc2cc(N3CC[C@@H](O)C3)c(NC(=O)c3coc(-c4cccnc4N)n3)cc21 [Example 29, (R)-2-(2-aminopyridin-3-yl)—N—(5-(3-hydroxypyrrolidin-1-yl)-1-methyl-1H-indazol-6-yl)oxazole-4-carboxamide hydrochloride] | 14% | 95% | < 100 nM
CN1CCN(c2nc(C(=O)Nc3cc4c(cnn4C)cc3N3CC[C@H](O)C3)co2)CC1 [Example 30, (S)—N—(5-(3-hydroxypyrrolidin-1-yl)-1-methyl-1H-indazol-6-yl)-2-(4-methylpiperazin-1-yl)oxazole-4-carboxamide hydrochloride] | 0% | 20% | –
Cn1ncc2cc(N3CC[C@H](O)C3)c(NC(=O)c3coc(N4CCNCC4)n3)cc21 [Example 31, (S)—N—(5-(3-hydroxypyrrolidin-1-yl)-1-methyl-1H-indazol-6-yl)-2-(piperazin-1-yl)oxazole-4-carboxamide hydrochloride] | 0% | 37% | –
CCn1ncc2cc(N3CC[C@H](O)C3)c(NC(=O)c3coc(-c4ccnc(C)c4)n3)cc21 [Example 32, (S)—N—(1-ethyl-5-(3-hydroxypyrrolidin-1-yl)-1H-indazol-6-yl)-2-(2-methylpyridin-4-yl)oxazole-4-carboxamide hydrochloride] | 62% | 95% | < 100 nM
Cc1cc(-c2nc(C(=O)Nc3cc4c(cnn4C4CC4)cc3N3CC[C@H](O)C3)co2)ccn1 [Example 33, (S)—N—(1-cyclopropyl-5-(3-hydroxypyrrolidin-1-yl)-1H-indazol-6-yl)-2-(2-methylpyridin-4-yl)oxazole-4-carboxamide hydrochloride] | 25% | 87% | 100 to 250 nM
Cn1ncc2cc(N3CC[C@H](O)C3)c(NC(=O)c3coc(C4=CCNCC4)n3)cc21 [Example 34, (S)—N—(5-(3-hydroxypyrrolidin-1-yl)-1-methyl-1H-indazol-6-yl)-2-(1,2,3,6-tetrahydropyridin-4-yl)oxazole-4-carboxamide hydrochloride] | 0% | 41% | –
Cc1nccc(-c2nc(C(=O)Nc3cc4c(cnn4C)cc3N3CC[C@H](O)C3)co2)n1 [Example 35, (S)—N—(5-(3-hydroxypyrrolidin-1-yl)-1-methyl-1H-indazol-6-yl)-2-(2-methylpyrimidin-4-yl)oxazole-4-carboxamide hydrochloride] | 45% | 93% | 100 to 250 nM
Cc1cc(-c2nc(C)c(C(=O)Nc3cc4c(cnn4C)cc3N3CC[C@H](O)C3)o2)ccn1 [Example 36, hydrochloride] | 2% | 1% | –
Cn1ncc2cc(N3CC[C@H](O)C3)c(NC(=O)c3coc(C4CCNCC4)n3)cc21 [Example 37, (S)—N—(5-(3-hydroxypyrrolidin-1-yl)-1-methyl-1H-indazol-6-yl)-2-(piperidin-4-yl)oxazole-4-carboxamide hydrochloride] | 0% | 0% | –
Cc1cc(-c2nc(C(=O)Nc3cc4c(cnn4C)cc3N3C4CCC3CC(O)C4)co2)ccn1 (stereo not drawn) [Example 38, N—(5-(3-hydroxy-8-azabicyclo[3.2.1]octan-8-yl)-1-methyl-1H-indazol-6-yl)-2-(2-methylpyridin-4-yl)oxazole-4-carboxamide] | 5% | 77% | > 250 nM
Cc1cc(-c2ncc(C(=O)Nc3cc4c(cnn4C)cc3N3CC[C@H](O)C3)o2)ccn1 [Example 39, (S)—N—(5-(3-hydroxypyrrolidin-1-yl)-1-methyl-1H-indazol-6-yl)-2-(2-methylpyridin-4-yl)oxazole-5-carboxamide] | 49% | 92% | 100 to 250 nM
Cc1cc(-c2nc(C(=O)Nc3cc4c(cnn4C)cc3N3CCC(O)(CO)CC3)co2)ccn1 [Example 40, N-(5-(4-hydroxy-4-(hydroxymethyl)piperidin-1-yl)-1-methyl-1H-indazol-6-yl)-2-(2-methylpyridin-4-yl)oxazole-4-carboxamide] | 95% | 98% | < 100 nM
Cc1cc(-c2nc(C(=O)Nc3cc4c(cnn4C)cc3N3CC[C@H](O)C3)c(C)o2)ccn1 [Example 41, (S)—N—(5-(3-hydroxypyrrolidin-1-yl)-1-methyl-1H-indazol-6-yl)-5-methyl-2-(2-methylpyridin-4-yl)oxazole-4-carboxamide hydrochloride] | 0% | 17% | –
CCc1cc(-c2nc(C(=O)Nc3cc4c(cnn4C)cc3N3CC[C@H](O)C3)co2)ccn1 [Example 42, (S)-2-(2-ethylpyridin-4-yl)—N—(5-(3-hydroxypyrrolidin-1-yl)-1-methyl-1H-indazol-6-yl)oxazole-4-carboxamide hydrochloride] | 83% | 97% | < 100 nM
Cc1nn(C)c2cc(NC(=O)c3coc(-c4ccnc(N)c4)n3)c(N3CCC(CO)CC3)cc12 [Example 43, 2-(2-aminopyridin-4-yl)—N—(5-(4-(hydroxymethyl)piperidin-1-yl)-1,3-dimethyl-1H-indazol-6-yl)oxazole-4-carboxamide hydrochloride] | 0% | 15% | –
Cc1cc(-c2nc(C(=O)Nc3cc4c(cnn4CC4CCNCC4)cc3N3CC[C@H](O)C3)co2)ccn1 [Example 44, (S)—N—(5-(3-hydroxypyrrolidin-1-yl)-1-(piperidin-4-ylmethyl)-1H-indazol-6-yl)-2-(2-methylpyridin-4-yl)oxazole-4-carboxamide hydrochloride] | 0% | 54% | –
Cc1cc(-c2nc(C(=O)Nc3cc4c(cc3N3CCC(CO)CC3)c(C)nn4C)co2)ccn1 [Example 45, N—(5-(4-(hydroxymethyl)piperidin-1-yl)-1,3-dimethyl-1H-indazol-6-yl)-2-(2-methylpyridin-4-yl)oxazole-4-carboxamide hydrochloride] | 2% | 12% | –
Cn1ncc2cc(N3CC[C@H](O)C3)c(NC(=O)c3coc(-c4ccnc(C5CC5)c4)n3)cc21 [Example 46, (S)-2-(2-cyclopropylpyridin-4-yl)—N—(5-(3-hydroxypyrrolidin-1-yl)-1-methyl-1H-indazol-6-yl)oxazole-4-carboxamide hydrochloride] | 93% | 97% | < 100 nM
Cn1cc2cc(N3CCC(O)CC3)c(NC(=O)c3cnn4cccnc34)cc2n1 [Example 47, N—(5-(4-hydroxypiperidin-1-yl)-2-methyl-2H-indazol-6-yl)pyrazolo[1,5-a]pyrimidine-3-carboxamide hydrochloride] | 34% | 89% | 100 to 250 nM
Cn1ncc2cc(N3CC[C@H](O)C3)c(NC(=O)c3cnn4cccnc34)cc21 [Example 48, (S)—N—(5-(3-hydroxypyrrolidin-1-yl)-1-methyl-1H-indazol-6-yl)pyrazolo[1,5-a]pyrimidine-3-carboxamide hydrochloride] | 25% | 80% | > 250 nM
